Results reported in patent US11491168B2, “Combination of Bcl-2/Bcl-xL inhibitors and chemotherapeutic agent and use thereof” (ASCENTAGE PHARMA (SUZHOU) CO., LTD., priority 2019, dated 2022).

Experiments:
[1] = tested on: AGS and NCI-N87 gastric cancer cell lines; test: cell cycle assay; type: cell-based
[2] = tested on: AGS gastric cancer cell line; test: CCK-8 cell viability, AGS; type: cell-based; settings: within 72 hours
Excerpt: (§1) Thus, the sensitivity of gastric cancer cells to Compound 31 is closely related to the expression of Bcl-2, Bcl-xL and Bax.

[3] = tested on: small cell lung cancer cell line NCI-H146, NCI-H69 and NCI-H446; test: Cell Titer-Glo luminescent cell viability assay (CTG); type: cell-based, human; settings: small cell lung cancer cells
Method: Cells in the logarithmic growth phase were collected for Cell Titer-Glo® (CTG) luminescence cell viability assay. 10 μL of the diluted drug solution was added into a 96-well plate while 10 μL of the medium was added into the 96-well control plate. For the study of the combination, 5 μL of the indicated test reagent was added to each well. At the end of the study, the 96-well plates were equilibrated to room temperature, and then 30 μL of CTG reagent (protected from light) was added to each well to induce cell lysis. The luminescent signal was then detected using a Biotek Synergy H1 plate reader. Percent cell viability (%) was calculated using the mean luminescence value (LN) of the replicate wells (blank) of the control group, according to the following formula: percent cell viability (%)=(fluorescence signal value of experimental cells−fluorescence signal value of negative control cell)/(fluorescence signal value of control cells−fluorescence signal value of negative control cells)×100%.
Cell viability curve was plotted using Graphpad Prism 6.0 software (Golden software, Golden, Colo., USA). For the study of the drug combination, the Combination Index (CI) was calculated using CalcuSyn software (BIOSOFT, UK) to further analyze the combined effects of the indicated drugs (Chou, Cancer Research 70, 440-446). […]

NCI-N87 cells [4] = test: CCK-8 anti-proliferation, NCI-N87, Compound 31 with docetaxel; type: cell-based; settings: Homo sapiens; NCI-N87, 72 hours, Compound 31 alone
Method: Briefly, NCI-N87 cells were seeded in 96-well plates and treated with different Compound 31 at different concentrations for 72 hours. […] Each concentration was prepared in triplicates. At the end of treatment, CCK-8 agents (10 μL/well) were added to the 96-well plate, and incubated with the cells for 2 hours. The OD450 value was measured using a microplate reader.

[5] = tested on: NCI-N87 gastric cancer cell line; test: CCK-8 cell viability, NCI-N87; type: cell-based; settings: Homo sapiens; NCI-N87, within 72 hours
Excerpt: as §1

AGS cells = test: AnnexinV/PI staining apoptosis, AGS; type: cell-based; settings: 48 hours, Compound 31 0.3 μM, 5-FU 3 μM
Method: (§2) The inventors chose to combine Compound 31 with one of the most common chemotherapeutic drugs in clinic, 5-fluorouracil (5-FU). In order to investigate the effect and the potential mechanisms of Compound 31 and 5-FU on the growth of gastric cancer cells, the inventors used the AnnexinV/PI staining to detect the apoptosis of two gastric cancer cells, AGS and NCI-N87, 48 hours after the treatment with Compound 31 (0.3 μM), 5-FU (3 μM), and the combination at specified concentrations. […] In NCI-N87 cells, the combination group also achieved a higher apoptosis rate than the mono therapy groups, Compound 31 or 5-FU as a single agent leading to apoptosis rates of 24% or 18% while the combination group reaching an apoptosis rate of 46% (FIG. 29(a)).

NCI-N87 cells [6] = test: AnnexinV/PI staining apoptosis, NCI-N87; type: cell-based; settings: NCI-N87, 48 hours; Compound 31 0.3 μM, 5-FU 3 μM
Method: as §2

IC50 [2]: 1150 ± 560 nM | IC50 [5]: 901 ± 230 nM
Structure (SMILES): Cc1c(S(C)(=O)=O)c(-c2cc(F)cc(N3CCN(c4ccc(NS(=O)(=O)c5ccc(N[C@H](CCN6CCC(C(=O)O)CC6)CSc6ccccc6)c(S(=O)(=O)C(F)(F)F)c5)cc4)CC3)c2)c(-c2ccc(Cl)cc2)n1C(C)C [Compound 31, (R)-1-(3-(4-(N-(4-(4-(3-(2-(4-chlorophenyl)-1-isopropyl-5-methyl-4-(methylsulfonyl)-1H-pyrrol-3-yl)-5-fluorophenyl)piperazin-1-yl)phenyl)sulfamoyl)-2-(trifluoromethylsulfonyl)phenylamino)-4-(phenylthio)butyl)piperidine-4-carboxylic acid]
effect on cell cycle [1]: no significant effect on cell cycle | inhibition of proliferation as a single agent [3]: can inhibit proliferation of small cell lung cancer cells | IC50 (NCI-N87 cells [4]): 405 nM | apoptosis rate (AGS cells): approximately 22% | apoptosis rate (NCI-N87 cells [6]): 24%
